What was measured:
[1] = system: ES-2 ovarian cancer cell line; test: Cytotoxicity test (SRB assay, cell viability); format: cell-based, human
Text: (§1) The ovarian cancer cell lines used in this study included: ES-2, OV-2008, and SKOV-3 obtained from American Type Culture Collection (ATCC). ES-2 was a clear cell carcinoma cell line with high resistance to platinum chemotherapies. Compared with other types of cancer, the clear cell carcinoma was found having poor prognosis in previous studies. SKOV-3 and OV-2008 were more benign cell lines compared to ES-2. Cell culture medium was McCoy5A culture medium (GIbco, 16600-082) supplemented with 1% antibiotic (Gibco, 15140) and 10% fetal bovine serum (FBS, Sigma, F7524). The cells were incubated in a standard incubator (Shel Lab, Sheldon Manufacturing, USA) at 37° C., 5% CO2.
(§2) All the tested cells were incubated in a medium containing 10% fetal bovine serum. When the cells grew to about eighty percent full, the old culture medium was drained and the cells were washed with PBS (phosphate buffered saline) buffer solution. Then, 10 ml of serum-free culture medium was added. Different drugs were added depending on experimental purposes. The reaction was carried out in a 37° C. constant temperature incubator.
(§3) The ovarian cancer cell lines ES-2, OV-2008, and SKOV-3 were placed in a 96-well culture plate (2000 cells/per well) and incubated overnight in 100 μl of complete DMEM. 50 μl of complete DMEM equivalent sample containing 4-acetyl-antroquinonol B (0.5-50 μM) was added to the different wells of the culture plate. In addition, only 100 μl of complete DMEM was added to the control group. After 2 days of culture, the number of cells in each well was determined by sulforhodamine B (a protein-binding dye). Briefly, the cells were fixed in 10% trichloroacetic acid and stained with 0.4% sulforhodamine B. After stained for 20 minutes, the cells were washed with 1% acetic acid. Thereafter, the cell-bound sulforhodamine B was dissolved in 10 mM Tris base. The absorbance (optical density) was determined at 562 nm by a microtiter plate reader.

[2] = system: OV-2008 ovarian cancer cell line; test: Cytotoxicity test (SRB assay, cell viability); format: cell-based, human; settings: 0.5-50 μM, 2 days, FIG. 1B
Text: as §1, §2, §3

[3] = system: SKOV-3 ovarian cancer cell line; test: Cytotoxicity test (SRB assay, cell viability); format: cell-based, human
Text: as §1, §2, §3

LC3BII = test: Autophagy: immunohistochemical staining and western blot of LC3BII in ES-2 cells; format: cell-based, human
Protocol: (§4) Western blot is carried out in a standard procedure. The cells were washed twice with PBS and then a cell lysis solution was added. Cell debris was removed by centrifugation to collect protein degradation products. The protein concentrate was quantified by BCA assay kit (Pierce, Thermo Scientific, USA). Each sample was taken an equal amount of protein degradation products to 10% SDS-PAGE electrophoresis then transferred to a PVDF membrane, followed by the addition of anti-autophagy-related genes (Atg-7, Atg-5, and LC3BII) primary antibodies, and an anti-β-actin antibody as a control group. After the target proteins and the primary antibodies reacted overnight, the secondary antibody conjugated to HRP was added. Finally, the signals of the target proteins were determined by a luminescence-based imaging system (UVP, LLC, USA).
Presumably because cisplatin treatment initiated autophagy that enhanced viability. […] After 4-acetyl-antroquinonol B treatment, LC3BII was detected by immunohistochemical staining and western blot, showing that 4-acetyl-antroquinonol B did inhibit the LC3BII expression on autophagosomes (FIG. 2A). Cell autophagy would protect cancer cells from apoptosis caused by chemotherapies. Hydroxychloroquine was a widely used antiparasitic drug. […] Hydroxychloroquine increased the pH inside lysosomes thus made the lysosomes difficult to fuse with mature autophagosomes. The Inhibitory effect on autophagy could also solve the problem of cell autophagy resistance due to chemotherapies in cancer cells.

Atg-7 = test: Western blot of Atg-7 in treated cells; format: cell-based, human; settings: FIG. 2C
Protocol: as §4

Atg-5 = test: Western blot of Atg-5 in treated cells; format: cell-based, human; settings: FIG. 2C
Protocol: as §4

ES-2 cell line = test: Clonogenicity analysis; format: cell-based, human; settings: FIG. 2D
Protocol: In a 6-well plate was seeded 600 cells per well. The culture medium was McCoy5A supplemented with 10% fetal bovine serum.

AKT/mTOR/p70S6K = test: Western blot of signaling pathway molecules in ES2 cells; format: cell-based, human; settings: treatment for 0, 3, 6, and 12 hours, FIG. 3
Protocol: as §4
The effect of 4-acetyl-arbutin-B on cell proliferation and autophagy of ovarian cancer cell line ES2 was observed, and the expression of autophagy-associated protein LC3BII and signaling pathway molecules AKT/mTOR/p70S6K were detected by western blot.

[4] = system: ES-2 ovarian cancer cell line tumors; test: ES-2 xenograft ovarian cancer animal model, tumor growth; format: in vivo, NOD-SCID mice; settings: for cell growth of ovarian cancer cell line ES-2 (tumor growth status), single agent: administration of either agent alone
Protocol: In this study, tumors were induced by malignant ovarian cancer cell line ES-2 in NOD-SCID mice to establish malignant ovarian cancer animal models. The efficacy of oral and intraperitoneal administration of 4-acetyl-antroquinonol B for ovarian cancer was evaluated. In the ovarian cancer animal models, the malignant ovarian cancer cell line ES-2 was implanted subcutaneously to simulate the symptoms of malignant ovarian cancer. And the same time, the animals were fed with different concentrations of 4-acetyl-antroquinonol B every day for six weeks. The animals were sacrificed each week in the six weeks, respectively. […] In addition, different doses of 4-acetyl-antroquinonol B were administered orally (5 mg/kg and 10 mg/kg), and 1 dose (3 mg/kg) of cisplatin was injected intravenously each week (three doses total) when the tumor size was about 70-250 mm^3. […] Importantly, as for safety of 4-acetyl-antroquinonol B, the body weight changes of each group of mice were monitored weekly. […] Therefore, 4-acetyl-antroquinonol B was a potential adjuvant therapy agent in the treatment of ovarian cancer.
Immunodeficient mice (NOD/SCID mice, about 4-6 weeks old) were purchased from BioLASCO Taiwan Co., Ltd. The test was initiated after a week of domestication.
The selected tumor cells were ES2 malignant ovarian cancer cells. ES-2 cell line was derived from a ovarian cancer cell line which was highly resistant to chemotherapy drugs (e.g. cisplatin) and had poor prognosis. It was an anchorage-dependent cell line with strong transfer capacity. The culture medium was DMEM containing 10% fetal bovine serum (FBS), 1% non-essential amino acids (NEAA), and 1% antibiotics. The cells were incubated in a incubator at 37° C., 5% CO2 and subcultured once every 3 to 4 days.
The cells were treated with 0.05% trypsin-EDTA for 3 to 5 minutes to be suspended. The serum-containing medium was added to neutralize trypsin. The mixture was then centrifuged at 1000 rpm at 20° C. for 5 min. The supernatant was removed and the cell pellet was gently dispersed. The cells were resuspended in a suitable volume of culture medium. After mixing evenly, a little cell fluid was taken and cells were counted with a cytometer. The cells were diluted to a concentration of 10^7 cells per milliliter, and approximately 0.15 ml was dispensed into a 1.5 ml small centrifuge tube.
A solution of 4-acetyl-antroquinonol B was prepared in DMSO (250 mg/ml, DMSO was used as the solvent). After 4-acetyl-antroquinonol B was completely dissolved, the solution was dispensed as stock solution and stored at 4° C. Sterile normal saline solution was added to the stock to make a 500-fold dilution. The mixture was mixed evenly and then injected intraperitoneally. Cisplatin, a current clinical standard chemotherapy drug, was also an injection with a concentration of 50 mg/ml or 5 mg/ml, and both of which were injected intravenously without further dilution.
The day before tumor cells injection, zoletil 50 (10-fold dilution) and rompun 2% were mixed (1:1), and 0.25 ml of the mixture was injected intraperitoneally to each mouse for anesthesia. The mice were exposed to radiation to suppress their immunity after they were asleep. The irradiation dose was 0.75 Gy.
Mice were anesthetized with 2.5% isoflurane. The hair of injection site was shaved. The injection site was disinfected with 75% alcohol and povidone-iodine before injection. ES2 tumor cells were injected via 29G insulin needle. […]

[5] = design: species or system NOD-SCID mice; settings: mouse, in vivo
Protocol: In this study, tumors were induced by malignant ovarian cancer cell line ES-2 in NOD-SCID mice to establish malignant ovarian cancer animal models. The efficacy of oral and intraperitoneal administration of 4-acetyl-antroquinonol B for ovarian cancer was evaluated. In the ovarian cancer animal models, the malignant ovarian cancer cell line ES-2 was implanted subcutaneously to simulate the symptoms of malignant ovarian cancer. And the same time, the animals were fed with different concentrations of 4-acetyl-antroquinonol B every day for six weeks. The animals were sacrificed each week in the six weeks, respectively. […] Importantly, as for safety of 4-acetyl-antroquinonol B, the body weight changes of each group of mice were monitored weekly. […]
The ES-2 ovarian cancer cells in logarithmic phase were mixed with serum suspension and 0.1 ml (2×10^6 cells) was inoculated into hind legs of NOD-SCID immunodeficient mice to form tumors. […] Changes in tumor volume and body weight were monitored and recorded every week. […] The longest diameter (a) and the shortest diameter (b) of the tumor on mice were measured. The tumor size=(a*b2)/2, and the tumor growth curve was calculated.

cell autophagy = settings: recent phase II clinical study; cited from earlier work

Row | SMILES | growth of ES2 cells ([1]; 20 uM, time-dependent effect, P<0.05) | response to 4-acetyl-antroquinonol B in cell viability test (cytotoxicity) ([1]; ES-2, 0.5-50 μM, 2 days, FIG. 1B) | cell viability compared with hydroxychloroquine ([1]; ES-2 pretreated with 5 μM cisplatin, same concentration) | response to 4-acetyl-antroquinonol B in cell viability test (cytotoxicity) [2] | inhibitory effect on ovarian cancer cell line [3] | cell autophagy (LC3BII; ES-2 cell line) | autophagosome maturation compared with hydroxychloroquine (LC3BII; ES-2 pretreated with 5 μM cisplatin, FIG. 2B) | LC3BII expression on autophagosomes (LC3BII; immunohistochemical staining and western blot, FIG. 2A) | expression of Atg-7 (Atg-7) | expression of downstream Atg-5 (Atg-5) | cell colony formation efficiency (ES-2 cell line) | expressions of signaling pathway key molecules AKT/mTOR/p70S6K (AKT/mTOR/p70S6K) | cell growth of ovarian cancer cell line ES-2 (tumor growth status), single agent [4] | inhibitory effect on tumor growth, administered alone ([4]; oral 5 mg/kg and 10 mg/kg) | tumor severity versus control group ([4]; oral or intraperitoneal injection, daily for six weeks) | combined inhibitory effect on ovarian cancer with cisplatin and FOLFOX ([4]; ovarian cancer animal model) | safety in the living body [5] | autophagy phenomenon after cisplatin treatment (LC3BII; ES-2 cell line) | body weight after sustained decrease from approximately 26 g [5] | inhibition of cell autophagy (cell autophagy)
1 | COC1=C(OC)[C@H](OC(C)=O)[C@H](C/C=C(\C)CC/C=C(\C)C[C@H]2C[C@H](C)C(=O)O2)[C@@H](C)C1=O [4-acetyl-antroquinonol B] | significantly inhibited | most pronounced response | significantly lower than that in cells treated with hydroxychloroquine | responsive | high inhibitory effect | significantly inhibited | inhibited more than in cells treated with hydroxychloroquine | did inhibit | reduced | inhibited | decreased | significantly reduced | effectively inhibited | dose-dependent inhibitory effect | significantly lower | synergistic inhibitory effect | extremely high |  |  | 
2 | N.N.[Cl][Pt][Cl] [cisplatin, reference compound] |  |  |  |  |  |  |  |  |  |  |  |  | effectively inhibited |  |  |  |  | more significant | about 21 g | 
3 | CCN(CCO)CCCC(C)Nc1ccnc2cc(Cl)ccc12 (stereo not drawn) [hydroxychloroquine] |  |  |  |  |  |  |  |  |  |  |  |  |  |  |  |  |  |  |  | could successfully inhibit cell autophagy

From patent publication US20180050012A1, “Method for Inhibiting Growth of Ovarian Cancer Cells” (NEW BELLUS ENTERPRISES CO., LTD., priority 2016, published 2018)
